Reference: EP4744680A1, “TARGETED CHEMICAL DRUG AND PREPARATION METHOD THEREFOR, PHARMACEUTICAL COMPOSITION, AND USE OF TARGETED CHEMICAL DRUG” (Bai Yao Zhi Da (Beijing) Nanobio Technology Co., Ltd., priority 2023, dated 2025)

Tests used:
[1] = system: U251-RFP human glioma; test: In-vivo efficacy study in the U251-RFP human glioma orthotopic mouse model (drug of Example 9); set-up: species or system mouse (BALB/c nude); conditions: 15mg/Kg intraperitoneal daily for 4 weeks
Excerpt: 2.Dosing regimen: Table 41

[2] = Body weight and general condition in the U251 study; type: in vivo, mouse (BALB/c nude); conditions: 15mg/Kg intraperitoneal daily for 4 weeks
Procedure: The relationship between body weight change and the dosing regimen is recorded.Survival and health status are also monitored, including activity levels and food intake during the dosing period. • c) Tumor and Organ Imaging: At the end of the dosing period, mice are euthanized, and their brain, heart, liver, spleen, lungs, and kidneys are excised.

Cn1nnc2c(C(N)=O)ncn2c1=O [Temozolomide]
Tumor growth inhibition rate (TGI, %) at different days post-inoculation ([1]; Day 6): 9.9% | Tumor growth inhibition rate (TGI, %) at different days post-inoculation ([1]; Day 10): 13.2% | Tumor growth inhibition rate (TGI, %) at different days post-inoculation ([1]; Day 13): 39.6% | Tumor growth inhibition rate (TGI, %) at different days post-inoculation ([1]; Day 17): 65.6% | Tumor growth inhibition rate (TGI, %) at different days post-inoculation ([1]; Day 20): 73.7% | Tumor growth inhibition rate (TGI, %) at different days post-inoculation ([1]; Day 24): 73.7% | Tumor growth inhibition rate (TGI, %) at different days post-inoculation ([1]; Day 27): 74.2% | Tumor weight ([1]; end of dosing period): 0.002 ± 0.001 g | IRTW% ([1]; tumor weight inhibition rate): 98.34% | Body weight change on Day 27 compared to pre-dosing [2]: +12%
